Some test systems named below: OVCAR-5 ovarian; NCI-H226 lung; SK-MEL-5 melanoma; KM20L2 colon; SNB-78 CNS; DLD-1 colon; UACC-257 melanoma.
Holding throughout (test): growth of human tumour cells (NCI), 48 h

The structures appear in SMILES notation. Values joined by “and” are separate entries in the source; they are usually repeats but may differ in a detail not shown here. Equal entries are not always repeated.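 In this assay, cells in 96-well plates receive the compound at five concentrations for 48 hours. Endpoints are linearly interpolated between the surrounding concentrations. Here, GI50 denotes the concentration required for 50% inhibition of growth. Definition used: TGI = concentration required for complete inhibition of growth.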

Regarding `CCOc1ccccc1NC(=O)C(C#N)C1=C(Cl)C(=O)c2ccccc2C1=O` (stereo not given), the TGI in the experiment on OVCAR-5 ovarian was 3.57 µM and 3.55 µM; in the experiment on NCI-H226 lung, 4.49 µM and 19 µM; in the experiment with SK-MEL-5 melanoma, 2.86 µM and 3.13 µM; in the experiment with SNB-78 CNS it was 4.42 µM; with DLD-1 colon, 3.31 µM and 4.27 µM; with UACC-257 melanoma, 2.25 µM and 6.7 µM. For the same molecule, the GI50 with KM20L2 colon was 17.7 µM; in the experiment on SNB-78 CNS it was 2.03 µM; in the experiment on DLD-1 colon, 2.14 µM; in the experiment on UACC-257 melanoma, 2.22 µM.

Source of the values: PubChem BioAssay (NCI).
